Source: patent publication US6482833B2, “Immunotherapeutic anti-cancer pharmaceutical compositions” (North Shore - Long Island Jewish Research Institute, priority 1997, dated 2002)
“Also recorded” adds a separate entry of the source.

Key:
[1] = test system: tumor cells; test: Direct cytotoxicity of the immunomodulatory compounds; assay type: cell-based; details: effective immunostimulatory concentrations
[2] = test system: B16 F1 tumor cells; test: In vivo mouse tumor model (B16 F1 cells), tumor size and formation; set-up: species or system mice; details: for solid tumor masses: mice, administered parenterally
[3] = test system: TNF; test: TNF levels in tumor biopsy samples of solid tumor-bearing mice; assay type: in vivo; details: 1 mg/kg ip; tumor biopsy samples in four mice
[4] = test system: TNFα release from LPS-stimulated macrophage cell cultures; test: TNF release from LPS-activated monocyte/macrophage cultures counter-regulated by spermine (ELISA); assay type: cell-based, human; details: for override of spermine inhibition of TNFα release: LPS-stimulated cells with spermine, TNFα in culture supernatants, dose-response
Protocol: Macrophage activation was measured by release of TNF into macrophage cell culture supernatants.
Monocytes were isolated and cultured by isolating fresh human PBMCs from EDTA-blood from healthy donors (Long Island Blood Service, Melville, N.Y.) by Ficoll-Paque (Pharmacia, Uppsala, Sweden) gradient. Cells were suspended in RPMI 1640 medium (Gibco BRL, Grand Island, N.Y.) containing 10% heat-inactivated human serum, 0.1% L-glutamine, and 0.01% gentamycin), and cultured at 37° C. in a humidified atmosphere of 5% CO2 and 95% air. PBMCs were plated in 96-well plates at 5×10^5 cells per well for cytokine assay and uptake study or in 24-well plates at 5×10^6 cells per well for RNA study. Nonadherent cells were removed after overnight culture, and adherent cells (monocytes) were then used for experiment.
(§1) Monocytes were activated to release cytokines by treating cells with 100 ng/ml sonicated LPS (Sigma, St Louis, Mo.) and 25 u/ml recombinant human interferon-γ (Boehringer Mannheim, Mannheim, Germany) except 1 μg/ml LPS alone for IL-1β. For treating cells with spermine, cells were pretreated with spermine (Sigma, St Louis, Mo.) one hour before LPS/IFG stimulation. Spermine was made freshly each time in sterile-filtered deionized water at 51.2 mM or 35 mM, and then diluted in complete RPMI 1640 medium followed by adding to individual wells to yield the final concentration indicated. Control wells received an equal volume of medium only were used in all experiment.

[5] = Carrageenan foot pad edema model of inflammation; assay type: in vivo, mice
Protocol: To determine an inflammatory […] foot pad edema model with carrageenan, female C3H/HeN mice (20-25g) were obtained from Jackson Laboratories, and 5 mice were used in each group to obtain statistically significant results. […] Louis, Mo.) was made in PBS at 37° C. 3 days or more before using. […] Louis, Mo.) was made freshly each time. Carrageenan (50 μl, 0.2%) was injected into the plantar surface of the left hind paw to induce paw edema in control group. and spermine at the doses indicated was coadministered in 50 μl PBS in three spermine groups. The right hind paw was injected with the same volume of PBS as control for every groups. The thickness of the two paws was measured double-blindly using a caliper 3 hours and 28 hours later. The difference in the thickness between the two paws was taken as inflammatory index.

[6] = test system: monocytes; details: spermine at the concentrations indicated
Protocol: as §1

[7] = test system: G361 cells; test: Macrophage-mediated cytotoxicity of LPS-activated monocytes to tumor cells
Protocol: Tumor cell cultures were split tumor cells 1:3 in FBS-containing RPMI 1640 medium and incubate overnight 20 μCi/ml ^3H-thymidine was added to tumor cell cultures to label the cells overnight. The cells were washed to remove unabsorbed label. The cells were trypsinized and suspended in 10 ml DPBS, washed and counted. Flasks of 7.5×10^5, 7.5/2×10^5, 7.5/4×10^5, 7.5/8×10^5, 7.5/16×10^5 and 7.7/32×10^5 cells/ml in RPMI 1640 medium were prepared. The tumor cells (200 μl) were added to wells containing 3×10^5 monocytes or control wells to make the E/T ratio 2:1, 4:1, 8:1, 16:1, 32:1 and 64:1. The cell mixture was incubated for 2 hours and macrophage-mediated cytotoxicity to tumor cells was determined.
PBMCs were isolated in a Ficoll-Paque (Pharmacia) gradient and plated. After 2 hours of incubation, the nonadherent cells were removed by rinsing with RPMI 1640 medium without serum 3×, then add 25 ml human serum-containing RPMI 1640 medium with 2 ng/ml human MCSF to each 75 flask and incubate the cells overnight. The cells were labeled with 20 uCi/ml ^3H-thymidine overnight and washed 2× with DPBS without Ca & Mg. The monocytes were isolated and counted, then diluted to 1.5×10^6 cells/ml in RPMI 1640. Tumor cells were diluted to 7.5×10^5, 7.5/2×10^5, 7.5/4×10^5, 7.5/8×10^5, 7.5/16×10^5 and 7.7/32×10^5 cells/ml in RPMI 1640 medium. About 200 μl tumor cells were added at different concentration to the wells containing 3×10^5 monocytes or control wells to make the E/T ratio 2:1, 4:1, 8:1, 16:1, 32:1 and 64:1, then incubated for 2 hrs.
About 400 μg/μl LPS was sonicated for 10 min, then 19.2 μl 400 μg/ml LPS was added to 10 ml RPMI 1640 medium.

[8] = 50 μM spermine, macrophages activated by endotoxin (LPS)

SMILES: NCCCCC(CN)CCCN (stereo not shown) [compound 94]
- direct cytotoxicity [1]: not cytotoxic

SMILES: NCCCN1CCN(CCCN)CC1 [compound 91]
- tumor size, time-response ([2]; 2 mg/kg): shrink tumor size
- growth of established tumors ([2]; 2 mg/kg administered seven days after tumor inoculation): inhibited the growth of established tumors
- solid tumor masses [2]: shrink solid tumor masses
- tumor size, time response and dose-response ([2]; two doses i.p., 0.5 mg/kg and 2 mg/kg in sterile PBS): shrink tumor size
- TNF levels in tumors [3]: significantly increase TNF levels in tumors
- direct cytotoxicity [1]: not cytotoxic
- override of spermine inhibition of TNFα release [4]: effectively overrode spermine-induced suppression of TNF secretion

SMILES: C(CCC1CCNCC1)CC1CCNCC1 [compound 214140]
- override of spermine inhibition of TNFα release [4]: override the inhibitory effect of spermine

SMILES: NCCCNCCCCNCCCN [spermine]
- acute footpad inflammation induced by carageenan ([5]; local administration in mice): protected mice against the development of acute footpad inflammation
- cell viability (LDH assay) [6]: did not affect cell viability significantly
- percent cytotoxicity, LPS alone versus LPS with spermine ([7]; 100 ng/ml LPS, 50 mM spermine, several ratios): reduces LPS-induced cytotoxicity
- cellular cytotoxicity of activated monocytes against G361 cells ([7]; 100 ng/ml LPS, 50-100 μM spermine): significantly inhibited
- macrophage-mediated tumor cell killing [7, 8]: effectively suppressed macrophage-mediated tumor cell killing
- suppression of TNF secretion [4, 8]: effectively suppressed TNF secretion
- inhibition of cytokine synthesis ([4]; serum-free conditions and in the presence of the polyamine oxidase inhibitor aminoguanidine): effectively inhibit cytokine synthesis

SMILES: CC1(C)CC(NCCCCCCNC2CC(C)(C)NC(C)(C)C2)CC(C)(C)N1 [compound 38, N,N′-bis(2,2,6,6-tetramethyl-4-piperidyl)hexamethylenediamine]
- tumor formation ([2]; mice inoculated with equal amounts of tumor cells, three doses at two concentrations): delayed tumor formation
- solid tumor masses [2]: shrink solid tumor masses
- paw edema, override of inflammatory inhibition by spermine ([5]; in vivo mouse paw edema model, dose response): overrode the inflammatory inhibition by spermine
- paw thickness, override of spermine effect ([5]; mouse foot pad carrageenan model, clinical concentrations): overrides the spermine effect
- direct cytotoxicity [1]: not cytotoxic
- override of spermine inhibition of TNFα release [4]: overcome spermine inhibition of TNFα release; also recorded: effectively overrode spermine-induced suppression of TNF secretion
